Experimental data as given in publication PMC4478171, “Synthesis, characterization, and preclinical validation of a PET radiopharmaceutical for interrogating Aβ (β-amyloid) plaques in Alzheimer’s disease” (EJNMMI Research, 2015).
“Also recorded” adds a separate entry of the source.

Assays:
AD homogenates = AD homogenates (Homo sapiens, UniProt P05067); assay: Saturation radioligand binding to AD brain homogenates (insoluble fraction)
Procedure: Well-established literature procedures were used for preparation of AD homogenates. Grey matter was isolated from frozen postmortem frontal cortex tissue by dissection with a scalpel. To prepare insoluble fractions, dissected tissue was sequentially homogenized in four buffers (3 mL/g wet weight of tissue) with glass dounce tissue grinders (Kimble, Vineland, NJ, USA): 1) high salt (HS) buffer: 50 mM Tris-HCl pH 7.5, 750 mM NaCl, 5 mM EDTA; 2) HSbuffer with 1%Triton X-100; 3) HSbuffer with 1%Triton X-100 and 1 M sucrose; and 4) phosphate-buffered saline (PBS). Homogenates were centrifuged at 100,000×g; after each homogenization step, the pellet was resuspended, and homogenized in the next buffer in the sequence. For comparison in initial binding studies, unfractionated tissue homogenates were also prepared by homogenization of tissue in only PBS. Binding assays were performed using previously described methods. Briefly, a fixed concentration (1 μM/well) of Aβ1-42 fibrils was incubated for 1 h at 37°C with increasing concentrations of ^18F-7B (1.5 to 100 nM) in 30 mM Tris-HCl pH 7.4, 0.1% BSA in a reaction volume of 150 μL. A fixed ratio of hot:cold (^18F-7B and 7A) was used for all radioligand concentrations. The exact hot:cold (^18F-7B:7A) ratio was measured in each experiment by counting an aliquot of a sample (2 μL) of the radioligand preparation in a scintillation counter. Binding of ^18F-7B to human brain homogenates was assessed by incubating samples of insoluble fraction (5-μg insoluble protein/well) from AD subjects, with increasing concentrations of ^18F-7B (1.5 to 100 nM). Nonspecific binding was determined in parallel experiments utilizing 7A (2.5 μM) for Aβ1-42 fibrils and 7A (5 μM) for AD tissue as a competitor. Bound and free radioligand were separated by vacuum filtration through glass fiber 96-well filter plates (Millipore Multiscreen FB filter plate), followed by washes using ice-cold assay buffer (3 × 150 μL). Glass fiber filters containing the bound ligand were mixed with Optiphase Supermix scintillation cocktail (150 μL; PerkinElmer, Waltham, MA, USA) and counted immediately. All data were obtained in triplicate and analyzed by curve fitting to a one-site binding model using nonlinear regression employing Graphpad Prism software (version 4.0) to determine Kd and Bmax values. Bmax values were calculated in pmol/gram wet weight of brain tissue.

[1] = Biodistribution studies in normal mice; type: in vivo, FVB mice; conditions: for Blood uptake / Bone uptake / Brain uptake / Kidney uptake / Liver uptake: FVB mice, n = 3
Procedure: All animal procedures were approved by the Washington University Animal Studies Committee. Pharmacokinetics of ^18F-7B in brain and other critical tissues of normal male 12-week-old FVB (wild type (WT); 28 to 36 g) mice were determined as previously described. Briefly, ^18F-7B (740 kBq) was dissolved in 100-μL saline containing 10% ethanol. All animals were anesthetized by isofluorane inhalation and injected with radiotracer ^18F-7B (740 kBq, 100 μL) via bolus injection through a tail vein. Animals were sacrificed by cervical dislocation under anesthesia at 5, 30, 60, and 120 min after injection (n = 3 each). Blood samples were obtained by cardiac puncture, organs then harvested rapidly, and all tissue samples analyzed for γ-activity. Data are expressed as the percentage injected dose (%ID) per gram of tissue (tissue kBq (injected kBq)^−1 (g tissue)^−1 × 100).

[2] = Metabolite analysis in human serum (radio-HPLC, radio-TLC); type: in vitro ADME; conditions: 37°C up to 60 min, radio-HPLC and radio-TLC
Procedure: Human serum (Sigma-Aldrich, St. Louis, MO, USA) was thawed. Serum (100 μL) was taken, diluted with saline to 10%, and incubated with HPLC-purified fraction of ^18F-7B (100 μCi each) at 37°C for 30 and 60 min. Samples were periodically withdrawn and analyzed on radio-HPLC using eluent mixture described above and radio-TLC using an eluent mixture of ethanol/saline in a ratio of 90:10 (to allow mobility of parental compound and other hydrophobic metabolites off the surface to analyze protein binding) and 10:90 (to analyze hydrophilic metabolites).

Lipophilicity (log P) = type: physicochemical; conditions: octanol/water

AD homogenates, sequence (P05067 672-711 limits assumed): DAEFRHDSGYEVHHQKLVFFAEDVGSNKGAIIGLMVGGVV

With `CN(C)c1ccc(/C=C/c2nc3ccc(OCC[18F])cc3s2)cn1` [^18F-7B, (E)-5-(2-(6-(2-[^18F]-fluoroethoxy)-benzo[d]thiazol-2-yl)vinyl)-N,N-dimethylpyridin-2-amine] the “fold higher affinity for AD homogenates compared with fibrils” value (AD homogenates; AD homogenates vs Aβ1-42 fibrils) was 3.4 fold, the Bmax (AD homogenates; AD homogenates, one-site model) was 1,432 pmol/g wet weight and the “fold lower binding affinity to AD homogenates than Florbetapir” value (AD homogenates; comparator value from ref 11) was 5 fold. For the same molecule, the “fold lower binding affinity to AD homogenates than Flutemetamol” value (AD homogenates; comparator value from ref 16) was 2.6 fold, the “fold lower BP than 11C-PIB” value (AD homogenates; homogenates, comparator from ref 28) was 6 fold and the “fold lower BP than 18F-Florbetaben” value (AD homogenates; homogenates, comparator from ref 36) was 2 fold. It also gave a Kd (AD homogenates; saturable specific binding, one-site model, nonspecific binding with 7A (5 μM)) of 17.7 nM, a Blood uptake ([1]; 5 min post i.v.) of 3.18 ± 0.23 %ID/g and a Bone uptake ([1]; 5 min post i.v.) of 1.61 ± 0.20 %ID/g. It also gave a Brain uptake ([1]; 5 min post i.v.) of 7.23 ± 0.47 %ID/g, a Kidney uptake ([1]; 5 min post i.v.) of 6.72 ± 0.44 %ID/g and a Liver uptake ([1]; 5 min post i.v.) of 16.22 ± 1.43 %ID/g. For the same molecule, the Blood uptake ([1]; 30 min post i.v.) was 2.51 ± 0.09 %ID/g, the Bone uptake ([1]; 30 min post i.v.) was 2.08 ± 0.13 %ID/g and the Brain uptake ([1]; 30 min post i.v.) was 2.27 ± 0.13 %ID/g. The Kidney uptake ([1]; 30 min post i.v.) was 2.83 ± 0.09 %ID/g, the Liver uptake ([1]; 30 min post i.v.) was 5.21 ± 0.08 %ID/g and the Blood uptake ([1]; 60 min post i.v.) was 2.40 ± 0.17 %ID/g. It also gave a Bone uptake ([1]; 60 min post i.v.) of 3.41 ± 0.37 %ID/g, a Brain uptake ([1]; 60 min post i.v.) of 2.00 ± 0.15 %ID/g and a Kidney uptake ([1]; 60 min post i.v.) of 2.20 ± 0.07 %ID/g. For the same molecule, the Liver uptake ([1]; 60 min post i.v.) was 3.44 ± 0.20 %ID/g, the Blood uptake ([1]; 120 min post i.v.) was 1.86 ± 0.05 %ID/g and the Bone uptake ([1]; 120 min post i.v.) was 5.27 ± 0.34 %ID/g. It also gave a Brain uptake ([1]; 120 min post i.v.) of 1.55 ± 0.01 %ID/g, a Kidney uptake ([1]; 120 min post i.v.) of 1.59 ± 0.03 %ID/g and a Liver uptake ([1]; 120 min post i.v.) of 2.73 ± 0.16 %ID/g. For the same molecule, the “brain uptake clearance ratio 5 min/120 min” value ([1]; %ID/g brain, normal mice) was 4.66, the “defluorination indicated by bone accumulation” value ([1]; as a function of time over 2 h, normal mice) was “slight defluorination” and the “stability in human serum” value [2] was “presence of parental species in human serum; also recorded: presence of primarily the parental compound”. The logP (Lipophilicity (log P)) was 1.3.
